The source of these data is US20110237606A1, “3-Deazaneplanocin Derivatives” (AGENCY OF SCIENCE, TECHNOLOGY AND RESEARCH, priority 2008, published 2011).

Each structure is given as a SMILES string. Counter-ions that a name gives are not always drawn.

One data set deals with HCT115 ER-E2F1 cells. The data set can be described thus: E2F1-induced apoptosis assay (ER-E2F1 activated by 4-OHT), FACS subG1. In kind it is cell-based. As to conditions: for E2F1 Induced apoptosis (+4-OHT) % Apoptosis: with 4-OHT (value in parentheses); for E2F1 Induced apoptosis % Apoptosis: without 4-OHT (value before the parentheses), 'No activity'. From the text:
Two assays were used to measure the compound's activity in induce apoptosis. The first assay measures the activity of compound to activate E2F1-induced apoptosis. In this assay, transcription factor E2F1 was engineered with ER receptor ligand binding domain. Addition of 4-OHT will be able to activate ER-E2F1 complex activity.
Fluorescence activated cell sorting (FACS) also known as flow cytometry is the technique used to determine apoptosis in this set of experiments. Apoptosis is indicated by cell populations with DNA content in the subG1 range. To determine the activity of these compounds, the inventors used HCT115 ER-E2F1 cells to determine the activity of the compound in inducing E2F1-dependent apoptosis. In this assay, addition of 4-OHT ligand will activate E2F1. DZNep has been show previously to activate OHT-induced apoptosis in this system.

In a further data set the test system is colon cancer cells. The data set is described as follows: Apoptosis induction in combination with histone deacetylase inhibitor TSA. Conditions: 48 h. The class given is cell-based. An excerpt:
The compound may show activity to activate E2F1-induced apoptosis of at least about 15%, or at least about 20 or 25%, or about 15 to 25%, 15 to 30%, 15 to 20% or 20 to 25%. In this context, transcription factor E2F1, which is involved in the action of tumour suppressing proteins, was engineered with ER receptor ligand binding domain. (ER receptor is a nuclear hormone type of intracellular oestrogen receptor.) The compound may show activity to activate E2F1-induced apoptosis in the presence of 4-OHT of at least about 25% or of at least about 30, 40, 50, 60, 70 or 80%, or of about 25 to about 80%, or about 30 to 80, 50 to 80, 60 to 80 or 50 to 70%, e.g. about 25, 30, 35, 40, 45, 50, 55, 60, 65, 70, 75, 80 or 85%. 4-OHT is 4-hydroxytamoxifen, an anti-estrogenic metabolite of tamoxifen with a much higher affinity for oestrogen receptors than tamoxifen itself. The compound may show apoptosis induction in colon cancer cells with histone deacetylase inhibitor TSA (Trichostatin A) of at least about 40%, or at least about 50, 60, 70 or 80%, or about 40 to about 90%, or about 50 to 90, 70 to 90, 40 to 60 or 50 to 80%, e.g. about 40, 50, 60, 70, 80 or 90%. It may be capable of inhibiting the function of Polycomb repressive complex 2 (PRC2) proteins. In this context, activity % refers to the percentage of cell undergoing apoptosis (death) under the combination drug treatment of DZNep analogue with TSA for 48 h.
The second assay was designed to measure synergistic effect of new compounds with histone deacetylase inhibitor TSA for apoptosis induction in colon cancer cells. DZNep is known to synergy with TSA to induce strong apoptosis in colon cancer cells ((Jiang et al., Cancer Cell, 13, 529-541, 2008). Again the new compounds are compared with DZNep in the context of inducing apoptosis with TSA. Assays were conducted in accordance with Jiang et al (above).

Data set [1] has as its system HCT-116 colorectal carcinoma xenograft. The data set can be described thus: In vivo efficacy in mouse HCT-116 colorectal carcinoma xenograft model. The method, then: The in vivo efficacy and toxicity of D3 was evaluated in a mouse HCT-116 colorectal carcinoma xenograft model.
Female athymic BALB/c nude mice (ARC, West Australia), 18-20 weeks of age, are fed with sterilized tap water (ad libitum water) and irradiated standard rodent diet consisting of: 19% protein, 5% fat, and 5% fiber. Mice are housed in individual ventilated cages on 12-hour light cycle at 21-22° C. and 40-60% humidity. Biological Resource Centre, Biopolis (BRC) complies with the recommendations of the guide for care and use of Laboratory Animals with respect to restraint, husbandry, surgical procedures, feed and fluid regulation, and veterinary care. The animal cares and use program (#070276) at BRC was Institutional Animal Care and Use Committee (IACUC) accredited.
D3 was provided in powder form, dissolved in 10% DMSO in sterile 1×PBS and stored in −20° C. Every mouse will receive a dose of 30-60 mg per kilogram body weight by intraperitoneal injection (ip).
Mice were implanted subcutaneously in the left flank with 5×10^6 cells of HCT-116 parental human colon carcinoma. The tumors were allowed to grow for 8 days and thereafter monitored every 2-3 days by caliper.
On the day 1, nude mice were divided into 2 groups according to tumor volume to ensure tumor volume evenly distributed into each group. Each group comprised 7 animals. Drug treatment was initiated on day 1. D3 is administered ip at doses of 30 mg/kg for 7 days followed by 60 mg/kg for another 5 days on once-a-day basis. Another group of mice received receive only vehicle by ip route. […] The study was terminated on Day 14.
Estimated tumor volume was calculated using the formula:
Tumor volume (mm^3)=(w^2×l)/2
where w=width and l=length in mm of an HCT-116 carcinoma.
Compound efficacy was assessed by the tumor growth inhibition (TGI) method in which tumor volume of treatment groups are compared to the vehicle controls. The percent tumor growth inhibition (% TGI) is calculated as follows:
% TGI=[…]×100
where: • Cday 1=median tumor volume for the control group (vehicle) on day 1 • Cday a=median tumor volume for the control group (vehicle) on day a • Tday a=median tumor volume for a treatment group on day a Animals classified as NTRD (non-treatment-related deaths) were excluded from TGI calculations.
The two sample t-test was used to determine the statistical significance of body weight changes and tumor volumes between groups. Statistical analyses were conducted at a p level of 0.05. SPSS was used for all statistical analyses and graphic presentations.

Data set [2] can be described thus: Maximum tolerated dose in vivo. As to conditions: compared to DZNep.

As for `Cl.Nc1nccc2c1ncn2[C@@H]1C[C@H](CO)[C@@H](O)[C@H]1O` [Compound 24, 3-Deazaaristeromycin hydrochloride], in the data set on HCT115 ER-E2F1 cells, the “E2F1 Induced apoptosis (+4-OHT) % Apoptosis” value is recorded as 60% and the “E2F1 Induced apoptosis % Apoptosis” value is given as 28%. Also, the “Combination with HDAC inhibitor TSA % Apoptosis” value in the data set with colon cancer cells was 70%.

Turning to `COCC1=C[C@@H](n2cnc3c(N)ncnc32)[C@H](O)[C@@H]1O` [Compound 25, (1S,2R,5R)-5-(6-amino-9H-purin-9-yl)-3-(methoxymethyl)cyclopent-3-ene-1,2-diol hydrochloride], in the data set on HCT115 ER-E2F1 cells (compared with DZNep), the “ability to cause apoptosis in the induction of E2F1-dependent apoptosis” value was “as effectively as DZNep”. Besides, in the data set on HCT115 ER-E2F1 cells, the “E2F1 Induced apoptosis (+4-OHT) % Apoptosis” value was 60%. For the same compound, in data set [1] (D3 ip 30 mg/kg 7 days then 60 mg/kg 5 days, p=0.033), the “tumor volume versus vehicle group” value is “statistically significantly smaller”. The tumor growth inhibition result is listed as “about 49%” in data set [1] (D3 ip 30 then 60 mg/kg, day 7); about 56% in data set [1] (D3 ip 30 then 60 mg/kg, day 9); about 54% in data set [1] (D3 ip 30 then 60 mg/kg, day 12); about 54% in data set [1] (D3 ip 30 then 60 mg/kg, end point day 14). For the same compound, the “maximum tolerated dose (MTD)” value in data set [2] is on record as “higher”.

`CC1(C)O[C@@H]2[C@H](O1)C(CO)=C[C@H]2n1cnc2c(N)ncnc21` [Compound 28]: the “E2F1 Induced apoptosis % Apoptosis” value with HCT115 ER-E2F1 cells is recorded as “No activity”. Moreover, the “Combination with HDAC inhibitor TSA % Apoptosis” value in the data set on colon cancer cells is recorded as “No activity”.

As to `Nc1ncnc2c1ncn2[C@@H]1CC[C@@H](O)[C@H]1O` [Compound I3, (1R,2S,3R)-3-(6-amino-9H-purin-9-yl)cyclopentane-1,2-diol], the tumor growth inhibition entry is “about 40%” in data set [1] (I3 30 mg/kg, day 6); about 43% in data set [1] (I3 30 mg/kg, day 8); about 31% in data set [1] (I3 30 mg/kg, day 10); about 35% in data set [1] (I3 30 mg/kg, day 13); about 34% in data set [1] (I3 30 mg/kg, end point day 14); “about 50%” in data set [1] (I3 60-80 mg/kg, day 6). Also, the tumor growth inhibition is reported as about 65% in data set [1] (I3 60-80 mg/kg, day 8); about 60% in data set [1] (I3 60-80 mg/kg, day 10); about 68% in data set [1] (I3 60-80 mg/kg, day 13); about 63% in data set [1] (I3 60-80 mg/kg, end point day 14). The “tumor volume versus vehicle group” value in data set [1] (I3 30 mg/kg, p=0.037) was “statistically significantly smaller”; in data set [1] (I3 60 mg/kg, p=0.000), “statistically significantly smaller”.
